Laboratory results as given in patent US7462614B2, “Imidazotriazine compounds” (Smithkline Beecham Corporation, priority 2003, dated 2008).
pIC50: −log10 of the molar value.

Columns and labels:
[1] = system: IMR90; assay: cells; details: Homo sapiens, IMR-90, 72 h, read-out: MeB Cell Line IC50
[2] = system: MDA435; assay: cells; details: MDA435, 72 h, read-out: MeB Cell Line IC50
[3] = system: breast tumor (MCF7) cell line; assay: Methylene Blue Growth Inhibition Assay, MCF7; format: cell-based; details: Homo sapiens, 72 h; MCF7, 3 days; read-out: MeB Cell Line IC50
Description: (§1) II. Methylene Blue Growth Inhibition Assay
(§2) Medium was removed by aspiration.

[4] = system: colon (RKO) tumor cell line; assay: Methylene Blue Growth Inhibition Assay, RKO; format: cell-based; details: Homo sapiens, 72 h, 3 days, read-out: MeB Cell Line IC50
Description: as §1, §2

[5] = system: lung (H460) tumor cell line; assay: Methylene Blue Growth Inhibition Assay, H460; format: cell-based; details: Homo sapiens, NCI-H460, 72 h; H460, 3 days; read-out: MeB Cell Line IC50
Description: as §1, §2

[6] = system: colon (HCT116) tumor cell line; assay: Methylene Blue Growth Inhibition Assay, HCT116; format: cell-based; details: Homo sapiens, HCT-116, 72 h; HCT116, 3 days; read-out: MeB Cell Line IC50
Description: as §1, §2

[7] = system: COLO205; assay: cells; details: Homo sapiens, COLO 205, 72 h, read-out: MeB Cell Line IC50
[8] = system: SAOS2; assay: cells; details: Homo sapiens, SAOS-2, 72 h, read-out: MeB Cell Line IC50
[9] = system: Normal Human foreskin fibroblasts (HFF); assay: Methylene Blue Growth Inhibition Assay, HFF; format: cell-based; details: 72 h, 3 days, read-out: MeB Cell Line IC50
Description: as §1, §2

[10] = system: prostate (PC3) tumor cell line; assay: Methylene Blue Growth Inhibition Assay, PC3; format: cell-based; details: Homo sapiens, 72 h; PC3, 3 days; read-out: MeB Cell Line IC50
Description: as §1, §2

[11] = target: T1, truncated human PLK1 (kinase domain) (Homo sapiens, UniProt P53350); assay: Assay for Inhibition of PLK1 (33P SPA enzyme activity); format: biochemical; details: 1 μM ATP, 2 nM enzyme; read-out: Ave pIC50 PLK Enzyme Inhibition (converted)
T1 construct: made in house; host or cells: baculovirus-infected T. ni insect cells
T1 sequence (P53350 21-346): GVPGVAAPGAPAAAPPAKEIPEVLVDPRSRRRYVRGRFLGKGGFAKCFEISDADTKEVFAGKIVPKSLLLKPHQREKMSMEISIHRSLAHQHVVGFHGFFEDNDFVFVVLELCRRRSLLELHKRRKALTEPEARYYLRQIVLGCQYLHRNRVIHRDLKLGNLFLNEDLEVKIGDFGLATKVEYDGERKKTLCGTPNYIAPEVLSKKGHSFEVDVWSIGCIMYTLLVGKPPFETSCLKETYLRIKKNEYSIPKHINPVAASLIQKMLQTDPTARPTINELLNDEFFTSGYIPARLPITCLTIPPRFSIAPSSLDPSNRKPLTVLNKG
Procedure, shortened: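 Enzyme is the 6×His-tagged PLK1 kinase domain, purified by Ni-chelate and gel filtration. Compounds added in DMSO, then enzyme; reaction stopped with EDTA/streptavidin SPA bead mix containing 60 μM ATP, read by 33P scintillation proximity.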

pIC50 [3]	pIC50 [4]	pIC50 [5]	pIC50 [6]	pIC50 [10]	IC50 [11]	SMILES	pIC50 [1]	pIC50 [2]	pIC50 [7]	pIC50 [8]	pIC50 [9]
4.52 to 5.00	4.52 to 5.00	4.52 to 5.00	5.00 to 6.00	4.52 to 5.00	< 100 nM	CC(=O)Nc1cccc(Nc2ncc3c(C)nc(-c4cccc(C(F)(F)F)c4)n3n2)c1 [Example 47, N-[3-({5-Methyl-7-[3-(trifluoromethyl)phenyl]imidazo[5,1-f][1,2,4]triazin-2-yl}amino)phenyl]acetamide]	–	–	–	–	4.52 to 5.00
4.52 to 5.00	5.00 to 6.00	4.52 to 5.00	4.52 to 5.00	4.52 to 5.00	100 to 10000 nM	Cc1nc(-c2cccc(C(F)(F)F)c2)n2nc(Nc3cccc(CNC(=O)OC(C)(C)C)c3)ncc12 [Example 48, tert-Butyl 3-({5-methyl-7-[3-(trifluoromethyl)phenyl]imidazo[5,1-f][1,2,4]triazin-2-yl}amino)benzylcarbamate]	–	–	–	–	4.52 to 5.00

The next lines start with the compound.

SMILES	pIC50 [3]	pIC50 [4]	pIC50 [5]	pIC50 [6]	pIC50 [10]	IC50 [11]	pIC50 [1]	pIC50 [2]	pIC50 [7]	pIC50 [8]	pIC50 [9]
COc1cc(Nc2ncc3c(C)nc(-c4ccccc4)n3n2)cc(OC)c1OC [Example 1, 5-Methyl-7-phenyl-N-(3,4,5-trimethoxyphenyl)imidazo[5,1-f][1,2,4]triazin-2-amine]	5.00 to 6.00	5.00 to 6.00	5.00 to 6.00	5.00 to 6.00	4.52 to 5.00	–	4.52 to 5.00	5.00 to 6.00	5.00 to 6.00	5.00 to 6.00	4.52 to 5.00
Cc1nc(-c2cccc(C(F)(F)F)c2)n2nc(Nc3cccc(S(N)(=O)=O)c3)ncc12 [Example 41, 3-({5-Methyl-7-[3-(trifluoromethyl)phenyl]imidazo[5,1-f][1,2,4]triazin-2-yl}amino)benzenesulfonamide]	5.00 to 6.00	5.00 to 6.00	5.00 to 6.00	5.00 to 6.00	4.52 to 5.00	100 to 10000 nM	–	–	–	–	4.52 to 5.00
COc1cc(Nc2ncc3c(C)nc(-c4cccc(C(N)=O)c4)n3n2)cc(OC)c1OC [Example 16, 3-{5-Methyl-2-[(3,4,5-trimethoxyphenyl)amino]imidazo[5,1-f][1,2,4]triazin-7-yl}benzamide]	4.52 to 5.00	4.52 to 5.00	4.52 to 5.00	4.52 to 5.00	4.52 to 5.00	100 to 10000 nM	–	–	–	–	4.52 to 5.00
